The text below walks through data of the supplement of paper PMC11208160.
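Further: IS621 recombinase and bridge RNA in Escherichia coli cells.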

This data set in a line: recombinant barcode read abundance after kanamycin selection (control-corrected) (log10(CPM+1)); higher = more efficient recombination; sequences stand for … in AGTGCAGAGAAAATCGGCCAGTTTTCTCTGCCTGCAGTCCGCATGCCGT…AGATTTATGCAGCGGACTGCCTTTCTCCCAAAGTGATAAACCGGACAGTATCATGGACCGGTTTTCCCGGTAATCCGTATTTGCAAGGTTGGTTTCACT; site = the 11-nt target. Put shortly: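 Pooled oligos, each joining a target to an IS621 bridge RNA target-binding loop, were cloned and co-electroporated with a donor plasmid into E. coli. Selective plates carried chloramphenicol/ampicillin/kanamycin and 0.1 mM IPTG, while chloramphenicol/ampicillin LB agar served as control, with two replicates of each. Recombination efficiency rests on averaged, control-corrected counts per million of barcodes at recombinant junctions, shown as log10(CPM+1).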
Turning to “CTCTCGTCTTGGGTTCTAACCTGTTGCAT (site CTCTCGTCTAG)”, the “recombinant barcode read abundance (log10)” value was determined as 0.0361.
Consider “CTCTCGTCTTGGGTTCTAACCTGTTGCAT (site CTCTCGTCTAT)”, for which the “recombinant barcode read abundance (log10)” value was 1.45.
As for “CTCTCGTCTTGGGTTCTAACCTGTTGCGG (site CTCTCGTCTCC)”, the “recombinant barcode read abundance (log10)” value stood at 1.16.
For “CTCTCGTCTTGGGTTCTAACCTGTTGCGG (site GGACGTGCTAG)”, the “recombinant barcode read abundance (log10)” value stood at 0.127.
On to “CTCTGGACTTGGGTTCTAACCTGTTGCTT (site CTCTGGACTAA)”, for which the “recombinant barcode read abundance (log10)” value is 1.13.
On to “CTCTGGACTTGGGTTCTAACCTGTTGCTT (site CTCTTGACTAA)”, for which the “recombinant barcode read abundance (log10)” value turned out to be 0.0289.
To “CTCTTCGCTTGGGTTCTAACCTGTTGCCT (site CTCTTCACTCG)” belongs 0.208; to “CTCTTCGCTTGGGTTCTAACCTGTTGCCT (site CTCTTCGCTAG)”, 0.314; to “CTGAAGCCTTGGGTTCTAACCTGTTGCCT (site ATGAAGCCTAG)”, 0.0394.
To “CTGAAGCCTTGGGTTCTAACCTGTTGCCT (site CTGAAGCCTAG)” belongs 1.74; to “CTGAAGCCTTGGGTTCTAACCTGTTGCCT (site GTGAAGCCTAG)”, 0.386.
On to “CTGAAGCCTTGGGTTCTAACCTGTTGCCT (site TTGAAGCCTAG)”, for which the “recombinant barcode read abundance (log10)” value turned out to be 0.409.
As for “CTGACTTCTTGGGTTCTAACCTGTTGCCT (site CAGACTTCTAG)”, the “recombinant barcode read abundance (log10)” value is 0.0484.
To “CTGACTTCTTGGGTTCTAACCTGTTGCCT (site CCGACTTCTAG)” belongs 0.0377; to “CTGACTTCTTGGGTTCTAACCTGTTGCCT (site CGGACTTCTAG)”, 0.079; to “CTGACTTCTTGGGTTCTAACCTGTTGCCT (site CTGACTTCTAG)”, 0.121.
In the case of “CTGAGTACTTGGGTTCTAACCTGTTGCCT (site ATCAGTACTAG)”, the “recombinant barcode read abundance (log10)” value was found to be 0.0653.
The figure for “CTGAGTACTTGGGTTCTAACCTGTTGCCT (site CTGAGTACTAG)” is 1.08; for “CTGAGTCCTTGGGTTCTAACCTGTTGCCA (site CTGAGTCCTTG)” it is 0.424.
“CTGAGTCCTTGGGTTCTAACCTGTTGCCA (site CTGAGTTCTTG)”: the “recombinant barcode read abundance (log10)” value was determined as 0.402.
For the sequence “CTGATCCCTTGGGTTCTAACCTGTTGCCT (site CAGATCCCTAG)”, the “recombinant barcode read abundance (log10)” value is 0.629.
To “CTGATCCCTTGGGTTCTAACCTGTTGCCT (site CCGATCCCTAG)” belongs 0.182.
“CTGATCCCTTGGGTTCTAACCTGTTGCCT (site CGGATCCCTAG)”: the “recombinant barcode read abundance (log10)” value was 0.255.
As to “CTGATCCCTTGGGTTCTAACCTGTTGCCT (site CTGATCCCTAG)”, the “recombinant barcode read abundance (log10)” value was determined as 1.22.
For the sequence “CTGATGACTTGGGTTCTAACCTGTTGCCT (site CTGATAACTAG)”, the “recombinant barcode read abundance (log10)” value turned out to be 0.177.
For “CTGATGACTTGGGTTCTAACCTGTTGCCT (site CTGATCACTAG)”, the “recombinant barcode read abundance (log10)” value came to 0.247.
As to “CTGATGACTTGGGTTCTAACCTGTTGCCT (site CTGATGACTAG)”, the “recombinant barcode read abundance (log10)” value amounted to 0.999.
“CTGATGACTTGGGTTCTAACCTGTTGCCT (site CTGATTACTAG)”: the “recombinant barcode read abundance (log10)” value was found to be 0.0174.
For the sequence “CTGATGTCTTGGGTTCTAACCTGTTGCCA (site CTGATGTCTTG)”, the “recombinant barcode read abundance (log10)” value came to 0.456.
Turning to “CTGATGTCTTGGGTTCTAACCTGTTGCCA (site CTGCTGTCTTG)”, the “recombinant barcode read abundance (log10)” value came to 0.126.
The figure for “CTGATGTCTTGGGTTCTAACCTGTTGCCA (site CTGGTGTCTTG)” is 0.388; for “CTGATGTCTTGGGTTCTAACCTGTTGCCA (site CTGTTGTCTTG)” it is 0.136.
As for “CTGCACCCTTGGGTTCTAACCTGTTGCTA (site CTGCACCCTTA)”, the “recombinant barcode read abundance (log10)” value is 1.61.
As to “CTGCACCCTTGGGTTCTAACCTGTTGCTA (site GGCGGAGCTCG)”, the “recombinant barcode read abundance (log10)” value turned out to be 0.378.
As to “CTGCACTCTTGGGTTCTAACCTGTTGCCA (site CTGCACTCTTG)”, the “recombinant barcode read abundance (log10)” value was 0.842.
Regarding “CTGCACTCTTGGGTTCTAACCTGTTGCCA (site CTGTACTCTAG)”, the “recombinant barcode read abundance (log10)” value was determined as 0.28.
Turning to “CTGCAGACTTGGGTTCTAACCTGTTGCCG (site CTCCAGACTCT)”, the “recombinant barcode read abundance (log10)” value was 0.37.
With “CTGCAGACTTGGGTTCTAACCTGTTGCCG (site CTGCAGACTCG)”, the “recombinant barcode read abundance (log10)” value was found to be 0.41.
Take “CTGCAGTCTTGGGTTCTAACCTGTTGCCA (site CTGCAGTCTTG)”: the “recombinant barcode read abundance (log10)” value came out at 0.18.
“CTGCAGTCTTGGGTTCTAACCTGTTGCCA (site TGCATAGCTCT)”: the “recombinant barcode read abundance (log10)” value was 0.126.
For “CTGCTCCCTTGGGTTCTAACCTGTTGCGG (site CTGATCCCTCC)”, the “recombinant barcode read abundance (log10)” value is 0.124.
For “CTGCTCCCTTGGGTTCTAACCTGTTGCGG (site CTGCTCCCTCC)”, the “recombinant barcode read abundance (log10)” value was 0.36.
With “CTGCTCCCTTGGGTTCTAACCTGTTGCGG (site CTGGTCCCTCC)”, the “recombinant barcode read abundance (log10)” value amounted to 0.306.
“CTGCTCCCTTGGGTTCTAACCTGTTGCGG (site CTGTTCCCTCC)”: the “recombinant barcode read abundance (log10)” value was determined as 0.0581.
The figure for “CTGGAGACTTGGGTTCTAACCTGTTGCTT (site AGAACTCCTTC)” is 0.0253.
Consider “CTGGAGACTTGGGTTCTAACCTGTTGCTT (site CTGGAGACTAA)”, for which the “recombinant barcode read abundance (log10)” value turned out to be 1.93.
Consider “CTGGCCACTTGGGTTCTAACCTGTTGCCT (site CAGGCCACTAG)”, for which the “recombinant barcode read abundance (log10)” value was determined as 0.115.
“CTGGCCACTTGGGTTCTAACCTGTTGCCT (site CCGGCCACTAG)”: the “recombinant barcode read abundance (log10)” value stood at 0.0832.
On to “CTGGCCACTTGGGTTCTAACCTGTTGCCT (site CGGGCCACTAG)”, for which the “recombinant barcode read abundance (log10)” value was determined as 0.0825.
Consider “CTGGCCACTTGGGTTCTAACCTGTTGCCT (site CTGGCCACTAG)”, for which the “recombinant barcode read abundance (log10)” value amounted to 0.766.
“CTGGCGTCTTGGGTTCTAACCTGTTGCCT (site CTGGAGTCTAG)”: the “recombinant barcode read abundance (log10)” value came out at 0.263.
For the sequence “CTGGCGTCTTGGGTTCTAACCTGTTGCCT (site CTGGCGTCTAG)”, the “recombinant barcode read abundance (log10)” value came out at 1.1.
With “CTGGCGTCTTGGGTTCTAACCTGTTGCCT (site CTGGGGTCTAG)”, the “recombinant barcode read abundance (log10)” value was 0.0321.
For “CTGGCGTCTTGGGTTCTAACCTGTTGCCT (site CTGGTGTCTAG)”, the “recombinant barcode read abundance (log10)” value was 0.0782.
On to “CTGGGAACTTGGGTTCTAACCTGTTGCAG (site CTCGGAACTAT)”, for which the “recombinant barcode read abundance (log10)” value came to 0.149.
As to “CTGGGAACTTGGGTTCTAACCTGTTGCAG (site CTGGGAACTCT)”, the “recombinant barcode read abundance (log10)” value was determined as 0.836.
To “CTGGGGTCTTGGGTTCTAACCTGTTGCCT (site CTGGAGTCTAG)” belongs 0.858; to “CTGGGGTCTTGGGTTCTAACCTGTTGCCT (site CTGGCGTCTAG)”, 0.36; to “CTGGGGTCTTGGGTTCTAACCTGTTGCCT (site CTGGGGTCTAG)”, 2.45.
“CTGGGGTCTTGGGTTCTAACCTGTTGCCT (site CTGGTGTCTAG)”: the “recombinant barcode read abundance (log10)” value was determined as 0.173.
Take “CTGGTGTCTTGGGTTCTAACCTGTTGCCA (site CTGATGTCTTG)”: the “recombinant barcode read abundance (log10)” value stood at 0.0384.
For “CTGGTGTCTTGGGTTCTAACCTGTTGCCA (site CTGCTGTCTTG)”, the “recombinant barcode read abundance (log10)” value turned out to be 0.0405.
In the case of “CTGGTGTCTTGGGTTCTAACCTGTTGCCA (site CTGGTGTCTTG)”, the “recombinant barcode read abundance (log10)” value worked out at 1.12.
To “CTGGTGTCTTGGGTTCTAACCTGTTGCCA (site CTGTTGTCTTG)” belongs 0.434; to “CTGTACTCTTGGGTTCTAACCTGTTGCCT (site CTGCACTCTTG)”, 0.126.
As to “CTGTACTCTTGGGTTCTAACCTGTTGCCT (site CTGTACTCTAG)”, the “recombinant barcode read abundance (log10)” value was found to be 1.3.
To “CTGTGAGCTTGGGTTCTAACCTGTTGCAG (site AACAATACTAG)” belongs 0.107; to “CTGTGAGCTTGGGTTCTAACCTGTTGCAG (site CTGTGAGCTCT)”, 1.47; to “CTGTGCACTTGGGTTCTAACCTGTTGCCG (site ATGTGCACTCT)”, 0.053.
As for “CTGTGCACTTGGGTTCTAACCTGTTGCCG (site CTGTGCACTCG)”, the “recombinant barcode read abundance (log10)” value was determined as 0.197.
With “CTGTGTCCTTGGGTTCTAACCTGTTGCGG (site CTGTGTCCTCC)”, the “recombinant barcode read abundance (log10)” value amounted to 1.84.
For the sequence “CTGTGTCCTTGGGTTCTAACCTGTTGCGG (site TCAGCCTCTAG)”, the “recombinant barcode read abundance (log10)” value was determined as 0.214.
With “CTTAACACTTGGGTTCTAACCTGTTGCCG (site CTTAACACTCG)”, the “recombinant barcode read abundance (log10)” value is 0.683.
Turning to “CTTAACACTTGGGTTCTAACCTGTTGCCG (site TCATGACCTAT)”, the “recombinant barcode read abundance (log10)” value turned out to be 0.0383.
Consider “CTTACGACTTGGGTTCTAACCTGTTGCCT (site CTTACGACTAG)”, for which the “recombinant barcode read abundance (log10)” value was 0.695.
The figure for “CTTACGACTTGGGTTCTAACCTGTTGCCT (site GTTACAACTAG)” is 0.355; for “CTTACTACTTGGGTTCTAACCTGTTGCCA (site CTTACTACTTG)” it is 0.0598.
